Measurements taken from patent US12171806B2, “Therapeutic regimens and methods for lowering blood glucose and/or body weight using GLP-1R and GCGR balanced agonists” (priority 2021, dated 2024).

Tests used:
[1] = in 6 weeks; cited from earlier work
[2] = over 26 weeks; cited from earlier work
[3] = biological target: T1, glucagon (human, cloned into CHO cells) receptor (Homo sapiens, UniProt P47871); assay: cAMP stimulation cellular assay (DiscoveRx LeadHunter), glucagon receptor; format: cell-based; settings: 0.1% BSA
T1 construct: host or cells: CHO cells
T1 sequence (P47871 26-477): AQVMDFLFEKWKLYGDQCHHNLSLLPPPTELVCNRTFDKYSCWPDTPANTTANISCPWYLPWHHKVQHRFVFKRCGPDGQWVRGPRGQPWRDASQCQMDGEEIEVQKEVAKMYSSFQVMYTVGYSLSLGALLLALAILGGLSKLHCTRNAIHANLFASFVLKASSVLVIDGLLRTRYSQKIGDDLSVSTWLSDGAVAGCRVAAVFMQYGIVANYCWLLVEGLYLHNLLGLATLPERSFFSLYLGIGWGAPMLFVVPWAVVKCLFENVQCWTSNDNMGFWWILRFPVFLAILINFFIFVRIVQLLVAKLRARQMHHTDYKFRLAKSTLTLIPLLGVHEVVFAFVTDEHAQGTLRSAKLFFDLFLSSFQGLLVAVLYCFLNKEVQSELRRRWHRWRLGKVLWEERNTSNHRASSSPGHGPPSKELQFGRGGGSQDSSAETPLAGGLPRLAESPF

Structure (SMILES) | reduction in liver fat content / hepatic fat fraction [1] | weight loss [2] | EC50 [3]
CCCCCCCCCCCCCCCC(=O)N[C@@H](CCC(=O)NCCCC[C@H](NC(=O)[C@H](CC(=O)O)NC(=O)[C@H](CO)NC(=O)[C@@H](NC(=O)[C@H](Cc1ccccc1)NC(=O)[C@@H](NC(=O)CNC(=O)[C@H](CCC(N)=O)NC(=O)[C@H](CO)NC(=O)[C@@H](N)Cc1c[nH]cn1)[C@@H](C)O)[C@@H](C)O)C(=O)N[C@@H](CO)C(=O)N[C@@H](CCC(=O)O)C(=O)N[C@@H](Cc1ccc(O)cc1)C(=O)N[C@@H](CC(C)C)C(=O)N[C@@H](CC(=O)O)C(=O)N[C@@H](CO)C(=O)N[C@@H](CCC(=O)O)C(=O)N[C@@H](CCCNC(=N)N)C(=O)N[C@@H](C)C(=O)N[C@@H](CCCNC(=N)N)C(=O)N[C@@H](CC(=O)O)C(=O)N[C@@H](Cc1ccccc1)C(=O)N[C@H](C(=O)N[C@@H](C)C(=O)N[C@@H](Cc1c[nH]c2ccccc12)C(=O)N[C@@H](CC(C)C)C(=O)N[C@@H](CCC(=O)O)C(=O)N[C@@H](C)C(=O)NCC(=O)NCC(=O)O)C(C)C)C(=O)O [cotadutide] | 39% | 5.4% | 
CC[C@H](C)[C@H](NC(=O)[C@H](Cc1ccccc1)NC(=O)[C@H](CCC(=O)O)NC(=O)[C@@H]1CCCCNC(=O)CC[C@H](NC(=O)[C@H](CC(=O)O)NC(=O)[C@H](CC(C)C)NC(=O)[C@H](Cc2ccc(O)cc2)NC(=O)[C@H](CCCCN)NC(=O)[C@H](CO)NC(=O)[C@H](Cc2ccc(O)cc2)NC(=O)[C@H](CC(=O)O)NC(=O)[C@H](CO)NC(=O)[C@@H](NC(=O)[C@H](Cc2ccccc2)NC(=O)[C@@H](NC(=O)CNC(=O)[C@H](CCC(N)=O)NC(=O)C(C)(C)NC(=O)[C@@H](N)Cc2c[nH]cn2)[C@@H](C)O)[C@@H](C)O)C(=O)N[C@@H](CCC(N)=O)C(=O)N[C@@H](C)C(=O)N[C@@H](C)C(=O)N1)C(=O)N[C@@H](CCCCNC(=O)[C@H]1O[C@@H](OCCCCCCCCCCCCCCCCCC(=O)O)[C@H](O)[C@@H](O)[C@@H]1O)C(=O)N[C@@H](Cc1c[nH]c2ccccc12)C(=O)N[C@@H](CC(C)C)C(=O)N[C@@H](CC(C)C)C(=O)N[C@@H](CCC(N)=O)C(=O)N[C@H](C(N)=O)[C@@H](C)O [EU-A1872] |  |  | 2.62 nM
